Assay results as given in publication PMC10197133, “Synthesis, Computational Insights, and Evaluation of Novel Sigma Receptors Ligands” (ACS Chemical Neuroscience, 2023).
“Also recorded” adds a separate entry of the source.

How the values were obtained:
S1R [1] = biological target: T1, S1R (Rattus norvegicus, UniProt Q9R0C9); assay: S1R radioligand binding assay, [3H](+)-pentazocine, liver homogenates; design: from tissue; host or cells: rat liver homogenate (male Sprague-Dawley); species or system male Sprague-Dawley rats; settings: for KiS2R/KiS1R (preference for S1R over S2R): ratio of S2R Ki to S1R Ki; for Ki: read-out: Ki (nM) ± SD S1R
T1 sequence (Q9R0C9 whole entry): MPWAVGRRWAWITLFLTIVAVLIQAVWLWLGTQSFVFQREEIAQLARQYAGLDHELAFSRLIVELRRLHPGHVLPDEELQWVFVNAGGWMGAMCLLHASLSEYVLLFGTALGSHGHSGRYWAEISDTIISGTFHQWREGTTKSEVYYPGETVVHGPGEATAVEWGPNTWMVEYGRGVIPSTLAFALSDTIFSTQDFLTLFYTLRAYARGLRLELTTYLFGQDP
Experimental: (§1) The Ki-values were calculated with the program GraphPad Prism 7.0 (GraphPad Software, San Diego, California). The Ki-values are given as mean value ± SD from at least two independent experiments performed in duplicate.

S2R = biological target: T2, S2R (Rattus norvegicus, UniProt Q5U3Y7); assay: S2R radioligand binding assay, [3H]DTG with (+)-pentazocine as S1R masking agent, liver homogenates; design: species or system male Sprague-Dawley rats; settings: read-out: Ki (nM) ± SD S2R
T2 construct: from tissue; host or cells: rat liver homogenate (male Sprague-Dawley)
T2 sequence (Q5U3Y7 1-176): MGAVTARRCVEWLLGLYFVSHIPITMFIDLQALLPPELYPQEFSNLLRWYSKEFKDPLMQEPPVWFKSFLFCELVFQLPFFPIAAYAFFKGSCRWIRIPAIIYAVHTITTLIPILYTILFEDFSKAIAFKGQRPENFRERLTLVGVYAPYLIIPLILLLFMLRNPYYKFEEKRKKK
Experimental: as §1

[2] = test system: capsaicin-induced mechanical hypersensitivity in mice; assay: Capsaicin-induced secondary mechanical hypersensitivity (allodynia); type: in vivo, female CD1 mice; settings: for S1R functional profile in vivo: concluded from the capsaicin model; for antiallodynic effect, compound administered alone / dose reaching full reversal of mechanical hypersensitivity (maximum antiallodynic effect): s.c.; for antiallodynic effect, compound administered alone: 30 min before capsaicin 1 μg i.pl., paw withdrawal latency at 0.5 g force, 4b 5–20 mg/kg, PRE-084 32 mg/kg; for antiallodynic effect when associated with the S1R agonist PRE-084: PRE-084 32 mg/kg s.c. 5 min before, BD-1063 40 mg/kg, 8f and 5b 20 mg/kg s.c.; for dose reaching full reversal of mechanical hypersensitivity (maximum antiallodynic effect): capsaicin 1 μg i.pl., mice
Experimental: We used capsaicin-induced secondary hypersensitivity (allodynia) as a pain model. It has been described that the increase in mechanical sensitivity in the area surrounding capsaicin injection (area of secondary allodynia) is due to central sensitization, which is a relevant process for chronic pain development and maintenance.[48]
Experiments were performed in female CD1 mice (Charles River, Barcelona, Spain) weighing 25–30 g. The mice were acclimated in our animal facilities for at least 1 week before testing and housed in a room under controlled environmental conditions: 12/12 h day/night cycle, air replacement every 20 min, and regulated temperature (22 ± 2 °C). The animals were fed a standard laboratory diet (Harlan Teklad Research Diet, Madison, Wisconsin) and tap water ad libitum until the beginning of the experiments. Testing was always performed from 9.00 to 15.00 h and randomly throughout the oestrous cycle. Animal care was made in accordance with institutional (Research Ethics Committee of the University of Granada, Spain), regional (Junta de Andalucía, Spain), and international standards (European Communities Council Directive 2010/63).
As selective S1R drugs, we used the S1R antagonist BD-1063 (1-[2-(3,4-dichlorophenyl)ethyl]-4-methylpiperazine dihydrochloride) and the S1R agonist PRE-084 (2-(4-morpholinethyl)-1-phenyl cyclohexane carboxylate hydrochloride) (both provided by Tocris Cookson, Bristol, U.K.).[57] The standard or experimental compounds were dissolved in 5% DMSO (Merck KGaA, Darmstadt, Germany) in physiological sterile saline (0.9% NaCl). They were prepared immediately before the start of the experiments and injected s.c. in a volume of 5 mL/kg into the interscapular area.
To test for the antiallodynic effects of BD-1063, 4b, 5b, or 8f, they were administered 30 min before the injection of capsaicin, used as the chemical algogen. To test the effects of PRE-084 or 4b on the antiallodynia induced by BD-1063, 8f, or 5b, the former were administered 5 min before the latter. When the effect of the association of several drugs was assessed, each injection was performed in different areas of the interscapular zone to avoid mixture of the drug solutions and any physicochemical interaction between them.
Capsaicin (Sigma-Aldrich Química S.A.) was dissolved in 1% DMSO in physiological sterile saline to a concentration of 0.05 μg/μL (i.e., 1 μg per mouse). Capsaicin solution was injected intraplantarly (i.pl.) into the right hind paw proximate to the heel, in a volume of 20 μL using a 1710 TLL Hamilton microsyringe (Teknokroma, Barcelona, Spain) with a 30^1/2-gauge needle. Control animals were injected with the same volume of the vehicle of capsaicin.
Animals were placed for 2 h in individual black-walled test compartments, which were situated on an elevated mesh-bottom platform with a 0.5-cm^2 grid to provide access to the ventral surface of the hind paws. Punctate mechanical stimulation was applied with a Dynamic Plantar Aesthesiometer (Ugo Basile, Varese, Italy) 15 min after capsaicin or saline administration (i.e., 45 min after the injection of the experimental drug). Briefly, a nonflexible filament (0.5 mm diameter) was electronically driven into the ventral side of the right hind paw (which was previously injected with capsaicin or vehicle) at least 5 mm away from the site of the injection toward the fingers. The intensity of the stimulation was fixed at 0.5 g force, as described previously.[49],[50] When a paw withdrawal response occurred, the stimulus was automatically terminated and the response latency was recorded. The filament was applied three times at intervals of 0.5 min, and the mean value of the three trials was considered the withdrawal latency time of the animal.

S1R [3] = biological target: T1, S1R; assay: S1R functional assay: S1R radioligand binding with or without phenytoin; design: incubating 200 μL of membrane preparation with 50 μL of 20 nM; from tissue; host or cells: membrane preparation; settings: for ratio Ki (nM) control/+ phenythoin: >1 agonist, ≤1 antagonist; for S1R functional profile in vitro (phenytoin assay): concluded from Ki ratio control/with phenytoin
Experimental: In order to further asses the functional profile of compounds 4b, 5b, and 8f, the well-established phenytoin-based functional assay was carried out.[52] Previous studies have shown that phenytoin, a low-potent allosteric modulator for the S1R, differentially modulates the affinity of S1R ligands depending on their agonist versus antagonist functionality.
The functionality of compounds 4b, 5b, and 8f on S1R was determined using the same radiolabeled binding assay for the S1R in the presence of phenytoin. […] The final volume was 0.5 mL.

[4] = with phenytoin (20 μL of 25 mM in 0.5 mL), 120 min at 37 °C, read-out: Ki (nM) + phenythoin
[5] = without phenytoin, read-out: Ki (nM) control

SMILES: c1ccc(CCN2CC3(CCN(c4ccccc4)CC3)C2)cc1 [4a, 2-Phenethyl-7-phenyl-2,7-diazaspiro[3.5]nonane]
- KiS2R/KiS1R (preference for S1R over S2R) (S1R [1]): 2.8
- Ki (S1R [1]): 28 ± 2 nM
- Ki (S2R): 77 ± 12 nM

SMILES: c1ccc(CCN2CC3(CCN(Cc4ccccc4)CC3)C2)cc1 [4b, 7-Benzyl-2-phenethyl-2,7-diazaspiro[3.5]nonane]
- effect on the antiallodynic effect of BD-1063 ([2]; 4b 2.5–10 mg/kg s.c. associated with BD-1063 40 mg/kg s.c.): fully reverse the antiallodynic effect of BD-1063
- S1R functional profile in vivo [2]: S1R agonistic in vivo effect
- antiallodynic effect, compound administered alone [2]: completely devoid of antiallodynic effect; also recorded: no antiallodynic effect
- KiS2R/KiS1R (preference for S1R over S2R) (S1R [1]): ~10
- Ki (S1R [1]): 2.7 ± 0.3 nM
- ratio Ki (nM) control/+ phenythoin (S1R [3]): 2.6
- S1R functional profile in vitro (phenytoin assay) (S1R [3]): agonist profile for the S1R
- Ki (S1R [3]; [4]): 1.2 nM
- Ki (S1R [3]; [5]): 3.2 nM
- Ki (S2R): 27 ± 5.3 nM

SMILES: c1ccc(CCN2CCC3(CC2)CN(CCc2ccccc2)C3)cc1 [4c, 2,7-Diphenethyl-2,7-diazaspiro[3.5]nonane]
- KiS2R/KiS1R (preference for S1R over S2R) (S1R [1]): 6.3
- Ki (S1R [1]): 3.5 ± 0.3 nM
- Ki (S2R): 22 ± 2.5 nM

SMILES: c1ccc(CCCN2CC3(CCN(c4ccccc4)CC3)C2)cc1 [4d, 7-Phenyl-2-(3-phenylpropyl)-2,7-diazaspiro[3.5]nonane]
- KiS2R/KiS1R (preference for S1R over S2R) (S1R [1]): 1.5
- Ki (S1R [1]): 34 ± 7.7 nM
- Ki (S2R): 51 ± 5 nM

SMILES: c1ccc(CCCN2CC3(CCN(Cc4ccccc4)CC3)C2)cc1 [4e, 7-Benzyl-2-(3-phenylpropyl)-2,7-diazaspiro[3.5]nonane]
- KiS2R/KiS1R (preference for S1R over S2R) (S1R [1]): 4.3
- Ki (S1R [1]): 7.2 ± 0.5 nM
- Ki (S2R): 31 ± 5.4 nM

SMILES: c1ccc(CCCN2CC3(CCN(CCc4ccccc4)CC3)C2)cc1 [4f, 7-Phenethyl-2-(3-phenylpropyl)-2,7-diazaspiro[3.5]nonane]
- KiS2R/KiS1R (preference for S1R over S2R) (S1R [1]): 1.2
- Ki (S1R [1]): 126 ± 22 nM
- Ki (S2R): 149 ± 27 nM

SMILES: O=C(c1ccccc1)N1CCC2(CC1)CN(CCc1ccccc1)C2 [5a, (2-Phenethyl-2,7-diazaspiro[3.5]nonan-7-yl)(phenyl)methanone]
- KiS2R/KiS1R (preference for S1R over S2R) (S1R [1]): 6.8
- Ki (S1R [1]): 37 ± 9.6 nM
- Ki (S2R): 255 ± 62 nM

SMILES: O=C(Cc1ccccc1)N1CCC2(CC1)CN(CCc1ccccc1)C2 [5b, 1-(2-Phenethyl-2,7-diazaspiro[3.5]nonan-7-yl)-2-phenylethan-1-one]
- antiallodynic effect when associated with the S1R agonist PRE-084 [2]: abolish the antiallodynic effect; also recorded: completely reversed their antiallodynic action
- S1R functional profile in vivo [2]: S1R antagonistic in vivo effect
- antiallodynic effect, compound administered alone [2]: mimicked the effect of the known S1R antagonist
- dose reaching full reversal of mechanical hypersensitivity (maximum antiallodynic effect) [2]: 20 mg/kg
- KiS2R/KiS1R (preference for S1R over S2R) (S1R [1]): 7.8
- Ki (S1R [1]): 13 ± 2.5 nM
- ratio Ki (nM) control/+ phenythoin (S1R [3]): 0.9
- S1R functional profile in vitro (phenytoin assay) (S1R [3]): antagonists for the S1R
- Ki (S1R [3]; [4]): 14 nM
- Ki (S1R [3]; [5]): 12 nM
- Ki (S2R): 102 ± 26 nM

SMILES: c1ccc(CN2CCCC3CN(c4ccccc4)CC32)cc1 (stereo not drawn) [8a, 1-Benzyl-6-phenyloctahydro-1H-pyrrolo[3,4-b]pyridine]
- KiS2R/KiS1R (preference for S1R over S2R) (S1R [1]): 0.6
- Ki (S1R [1]): 254 ± 32 nM
- Ki (S2R): 148 ± 29 nM

SMILES: c1ccc(CCN2CCCC3CN(c4ccccc4)CC32)cc1 (stereo not drawn) [8b, 1-Phenethyl-6-phenyloctahydro-1H-pyrrolo[3,4-b]pyridine]
- KiS2R/KiS1R (preference for S1R over S2R) (S1R [1]): 0.6
- Ki (S1R [1]): 505 ± 88 nM
- Ki (S2R): 279 ± 83 nM

SMILES: c1ccc(CCN2CCCC3CN(Cc4ccccc4)CC32)cc1 (stereo not drawn) [8c, 6-Benzyl-1-phenethyloctahydro-1H-pyrrolo[3,4-b]pyridine]
- Ki (S1R [1]): 19 ± 2.6 nM
- Ki (S2R): 126 ± 19 nM

SMILES: c1ccc(CCN2CC3CCCN(CCc4ccccc4)C3C2)cc1 (stereo not drawn) [8d, 1,6-Diphenethyloctahydro-1H-pyrrolo[3,4-b]pyridine]
- KiS2R/KiS1R (preference for S1R over S2R) (S1R [1]): 0.07
- Ki (S1R [1]): 1730 ± 403 nM
- Ki (S2R): 114 ± 15 nM

SMILES: c1ccc(CCCN2CCCC3CN(c4ccccc4)CC32)cc1 (stereo not drawn) [8e, 6-Phenyl-1-(3-phenylpropyl)octahydro-1H-pyrrolo[3,4-b]pyridine]
- KiS2R/KiS1R (preference for S1R over S2R) (S1R [1]): 0.8
- Ki (S1R [1]): 108 ± 31 nM
- Ki (S2R): 91 ± 5.8 nM

SMILES: c1ccc(CCCN2CCCC3CN(Cc4ccccc4)CC32)cc1 (stereo not drawn) [8f, 6-Benzyl-1-(3-phenylpropyl)octahydro-1H-pyrrolo[3,4-b]pyridine]
- antiallodynic effect when associated with the S1R agonist PRE-084 [2]: abolish the antiallodynic effect; also recorded: completely reversed their antiallodynic action
- S1R functional profile in vivo [2]: S1R antagonistic in vivo effect
- antiallodynic effect, compound administered alone [2]: mimicked the effect of the known S1R antagonist
- dose reaching full reversal of mechanical hypersensitivity (maximum antiallodynic effect) [2]: 20 mg/kg
- KiS2R/KiS1R (preference for S1R over S2R) (S1R [1]): 16.5
- Ki (S1R [1]): 10 ± 1.6 nM
- ratio Ki (nM) control/+ phenythoin (S1R [3]): 0.8
- S1R functional profile in vitro (phenytoin assay) (S1R [3]): antagonists for the S1R
- Ki (S1R [3]; [4]): 12 nM
- Ki (S1R [3]; [5]): 9.6 nM
- Ki (S2R): 165 ± 36 nM

SMILES: c1ccc(CCCN2CCCC3CN(CCc4ccccc4)CC32)cc1 (stereo not drawn) [8g, 6-Phenethyl-1-(3-phenylpropyl)octahydro-1H-pyrrolo[3,4-b]pyridine]
- KiS2R/KiS1R (preference for S1R over S2R) (S1R [1]): 1.4
- Ki (S1R [1]): 710 ± 150 nM
- Ki (S2R): 1030 ± 200 nM

SMILES: CN1CCN(CCc2ccc(Cl)c(Cl)c2)CC1.Cl.Cl [BD-1063, 1-[2-(3,4-dichlorophenyl)ethyl]-4-methylpiperazine dihydrochloride, reference compound]
- antiallodynic effect when associated with the S1R agonist PRE-084 [2]: abolish the antiallodynic effect
- antiallodynic effect, compound administered alone [2]: full and dose-dependent reduction of mechanical hypersensitivity
- dose reaching full reversal of mechanical hypersensitivity (maximum antiallodynic effect) [2]: 40 mg/kg
- ratio Ki (nM) control/+ phenythoin (S1R [3]): 0.7
- Ki (S1R [3]; [4]): 10 nM
- Ki (S1R [3]; [5]): 6.7 nM

SMILES: Cl.O=C(OCCN1CCOCC1)C1(c2ccccc2)CCCCC1 [PRE-084, 2-(4-morpholinethyl)-1-phenyl cyclohexane carboxylate hydrochloride, reference compound]
- antiallodynic effect, compound administered alone [2]: did not modify the response latency

SMILES: C=CCN1CC[C@]2(C)c3cc(O)ccc3C[C@H]1[C@H]2C [SKF-10,047, reference compound]
- ratio Ki (nM) control/+ phenythoin (S1R [3]): 5.8
- S1R functional profile in vitro (phenytoin assay) (S1R [3]): agonist profile for the S1R
- Ki (S1R [3]; [4]): 17 nM
- Ki (S1R [3]; [5]): 99 nM
